From patent US8227516B2, “Compounds as histone deacetylase inhibitors” (4SC Discovery GmbH, priority 2002, dated 2012)
Like-named read-outs stand apart in the source and are kept apart here.

Experiments:
[1] = test system: BCL-XL expression in K562 cells; experiment: Protein expression profiling, Western Blot: BCL-XL down-regulation; format: cell-based; details: 36 hours
From the text: (§1) Protein expression profiling. The expression pattern induced by histone deacetylase inhibitors can be monitored by Western Blot analysis with antibodies against p21 and BCL-XL using whole cell extracts of cells treated with the respective compounds at the indicated concentrations. Modulation of protein expression is exemplified by the induction of expression of the cell cycle inhibitor/tumor suppressor p21 and the suppression of expression of the anti-apoptotic molecule BCL-XL.

BV-173 cells = experiment: Measurement of apoptosis, FACS sub-G1 by propidium iodide staining; format: cell-based; details: with Z-VAD, 24 hours
From the text: Measurement of Apoptosis. FACS analysis of the cell cycle by propidium iodide (PI) staining. The cell cycle can be divided into four different sections: During G0/1-phase cells are in senescence or proliferate, in S-phase cells start replicating their DNA, and during G2- and M-phase cells undergo mitosis. […] Degradation of DNA is a marker for apoptosis. The sub-G1 area indicates the hypodiploid DNA peak corresponding to cells with fragmented DNA undergoing apoptosis Using a dye that intercalates with DNA (such as propidium iodide—PI) the cellular DNA content was determined. Between 5×10^5-1×10^6 cells were seeded out in cell culture dishes and treated for the desired time with the desired amount of test compound. After the incubation cells were harvested, washed in cold PBS, and the cell pellet was resuspended in 1 ml 70% ethanol (−20° C.). These cell pellets may be shelved for several month.
For PI staining 3 ml cold sodium citrate solution (38 mM, pH 7.4) was added, cells were pelleted and stained with 500 μl sodium citrate solution (38 mM, pH 7.4) containing 50 μg/ml PI and 5 μg/ml RNase. After a 30 minute incubation time at 37° C. in darkness, cells were analyzed via FACS analysis. The sub-G1-peak constitutes the amount of apoptotic cells.

[2] = test system: HDAC activity in nuclear extracts from HeLa cells; experiment: In vitro HDAC activity in HeLa nuclear extracts (Fluor de Lys); format: biochemical; details: read-out: concentration giving 50% reduction of HDAC activity
From the text: Relative HDAC activity is shown as percent of activity of untreated nuclear extracts.
(§2) In vitro inhibition of recombinant HDAC's. The determination of histone deacetylase activity in HeLa nuclear extracts or recombinant HDAC proteins from High5 insect cells is based on the specific deacetylation of an artificial substrate (Fluor de Lys, Biomol). The substrate turn over may be detected and quantified by fluorometry. By addition of a potential HDAC inhibitor the hydrolysis of the substrate is constrained resulting in a decreased fluorometric signal. IC50 values may be calculated from dose-response curves.
(§3) The assay is separated in two steps: in the first step the substrate (Fluor de Lys/Biomol KI-104) is hydrolysed by histone deacetylases. In step two HDAC activity is terminated and the fluorophore is activated by the addition of a developer (Developer/Biomol KI-105). Nuclear extracts from HeLa cells (Biomol KI-140) or recombinant proteins and the potential HDAC inhibitor are mixed with reaction buffer (Biomol KI143) to a total volume of 25 μl per well of a 96 well plate. 25 μl substrate (1:100 dilution in reaction buffer) per well are added to start the reaction. A negative control without histone deacetylase activity and a positive control without HDAC inhibitor are treated likewise. The reaction is stopped after 15-60 min. by adding 50 μl developer (1:20 dilution in reaction buffer). After another 15 min. incubation time at room temperature the fluorescence signal is stable for 60 min and may be detected by a fluorescence reader (excitation filter: 390 nm, emission filter: 460 nm).

[3] = test system: HDAC-dependent transcriptional repression in reporter cell line UAS TK-luc (293T cells); experiment: Transcriptional reporter gene assay (UAS TK luciferase, Gal4-repressor fusion); format: cell-based; details: for concentration at which induction of luciferase reporter gene expression starts: 24 hours treatment; for fold induction at 8 µM: Homo sapiens, HEK-293T, read-out: fold induction of luciferase reporter gene expression
Description: Depicted is the fold induction of luciferase expression after treatment of cells at the indicated concentrations of Compounds 1, 2 and 3.
Transcriptional reporter gene assay. The transcriptional assay for repressor activity exploits activation and derepression of a Gal4-dependent reporter gene (Hildebrand et al., 2001, J Biol Chem 276, 9889-95; Maurer et al., 2002, Blood 99, 2647-52). This assay is performed with specifically constructed permanent cell lines. 293T cell were stably transfected with a UAS TK luciferase reporter plasmid (Heinzel et al., 1997 Nature 387, pp 43-48) and an expression plasmid for the Gal4 DNA binding domain fused to an HDAC-dependent repressor molecule. While Gal4 fusion proteins repress this activity, HDAC inhibitors induce relief of this repression which can be detected as an increase in reporter gene activity (e.g. by luciferase activity detection assay).
Addition of Compounds 1, 2 and 3 relieve this repression as measured by increased expression and activity of luciferase in lysates of treated cells after 24 hours. Both, Compound 1 and 2 induce luciferase reporter gene expression after stimulation of cells for 24 hours starting at a concentration of 8 μM (2-3 fold) with a maximum induction of more than 20 fold at 200 μM. Compound 3, however, induces expression of reporter gene already at a concentration of 1.6 μM with a maximum induction of almost 40 fold at 40 μM.

[4] = test system: histone H4 acetylation in 293T cells; experiment: Induction of histone H4 hyperacetylation, Western Blot; format: cell-based; details: 6 hours
From the text: Induction of histone hyperacetylation. These acetylated histones can be detected by Western Blot analysis of whole cell extracts from histone deacetylase inhibitor-treated 293T cells using antibodies specific for the acetylated N-terminal lysine residues of histones H4 (Göttlicher et al., 2001, EMBO J. 20, 6969-78).
Since histone deacetylase inhibitors shift the enzymatic balance between histone acetyl transferases (HAT's) and histone deacetylases (HDAC's) towards HAT's by blocking HDAC's, they induce the accumulation of N-terminally hyperacetylated histones H4. This can be seen in FIG. 2 by the induction of histone hyperacetylation after treatment of 293T cells for 6 hours with Compounds 1, 2 and 3. Hyperacetylation can be seen with Compounds 1 and 2 at a concentration as low as 1.6 μM with a maximum induction at […], whereas compound 3 induces hyperacetylation starting at 320 nM.

[5] = test system: human tumor cell lines of breast, colon, pancreas and prostate origin; experiment: Growth inhibition of tumor cell lines (SRB assay); format: cell-based; details: various cancer cell lines, 72 hours
Description: Growth inhibition of tumor cell lines. The reduction in cellular biomass was measured by SRB-assay. For this assay cells were seeded in 96 well culture dishes at densities between 3000 and 8000 cells per well. After recovery of 24 hours cells were cultured for 48-72 hours in the absence or presence of the indicated concentrations of compounds. Synergistic reduction in total cellular biomass was assayed through SRB-assay by adding the compounds in the medium at the indicated concentrations and cultivate the cells for further 48 hours.
Cells were fixed with cold Trichloracetat (TCA) producing a final TCA concentration of 10%. After 1 hour of incubation at 4° C. the cells were washed five times with water and air dried. Fixed cells were stained for 30 minutes with 0.4% (wt/vol) Sulforhodamine B (SRB) dissolved in 1% acetic acid and washed four times with 1% acetic acid to remove unbound dye. After air drying bound dye was solubilized with 10 mM unbuffered Tris base (pH 10.5) for 5 minutes. Optical densities (OD) were read on a Molecular Devices Versa Max tunable microplate reader at 520-550 nm. Four test wells for each dose-response were set in parallel with 12 control wells per cell line. Measurement of the cell population density at time 0 (To; the time at which the drug was added) was also made from 12 reference wells of cells fixed with TCA just prior to drug addition to the test plates. Background OD of complete medium with 5% FBS fixed and stained as described above was also determined in 12 separate wells. From the unprocessed OD data from each microtiter plate the background OD measurements (i.e. OD of complete medium plus stain and OD of cells at T0) were subtracted thus giving the reduction of cellular biomass of the cells.

[6] = test system: p21 expression in K562 cells; experiment: Protein expression profiling, Western Blot: p21 induction; format: cell-based; details: 36 hours
From the text: as §1

recombinant HDAC1 = biological target: T1, recombinant HDAC1 (Homo sapiens, UniProt Q13547); experiment: In vitro inhibition of recombinant HDAC1 (Fluor de Lys); format: biochemical; details: read-out: concentration giving 50% reduction of HDAC activity
T1 construct: made in house; host or cells: High5 insect cells
T1 sequence (Q13547 whole entry, species assumed): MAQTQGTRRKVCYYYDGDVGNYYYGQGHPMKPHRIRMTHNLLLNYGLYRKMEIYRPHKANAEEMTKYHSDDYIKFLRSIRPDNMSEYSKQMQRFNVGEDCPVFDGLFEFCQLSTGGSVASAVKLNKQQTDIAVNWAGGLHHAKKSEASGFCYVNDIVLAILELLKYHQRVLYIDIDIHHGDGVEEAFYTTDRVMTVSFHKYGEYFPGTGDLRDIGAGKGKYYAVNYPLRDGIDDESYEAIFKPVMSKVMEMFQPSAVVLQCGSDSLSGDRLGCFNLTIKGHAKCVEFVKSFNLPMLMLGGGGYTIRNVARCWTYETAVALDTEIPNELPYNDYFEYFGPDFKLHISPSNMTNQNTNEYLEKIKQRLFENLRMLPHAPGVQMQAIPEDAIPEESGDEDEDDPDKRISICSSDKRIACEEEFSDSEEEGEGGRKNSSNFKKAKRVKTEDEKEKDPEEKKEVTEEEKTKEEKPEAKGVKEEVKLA
From the text: (§4) Relative HDAC activity is shown as percent of activity of untreated HDAC enzymes.
as §2
as §3, with “A negative control without histone deacetylase activity and a positive control without HDAC inhibitor are treated likewise. The reaction is stopped after 15-60 min. by adding 50 μl developer (1:20 dilution in reaction buffer).” left out

recombinant HDAC6 = biological target: T2, recombinant HDAC6 (Homo sapiens, UniProt Q9UBN7); experiment: In vitro inhibition of recombinant HDAC6 (Fluor de Lys); format: biochemical; details: read-out: concentration giving 50% reduction of HDAC activity
T2 construct: made in house; host or cells: High5 insect cells
T2 sequence (Q9UBN7 1-1215): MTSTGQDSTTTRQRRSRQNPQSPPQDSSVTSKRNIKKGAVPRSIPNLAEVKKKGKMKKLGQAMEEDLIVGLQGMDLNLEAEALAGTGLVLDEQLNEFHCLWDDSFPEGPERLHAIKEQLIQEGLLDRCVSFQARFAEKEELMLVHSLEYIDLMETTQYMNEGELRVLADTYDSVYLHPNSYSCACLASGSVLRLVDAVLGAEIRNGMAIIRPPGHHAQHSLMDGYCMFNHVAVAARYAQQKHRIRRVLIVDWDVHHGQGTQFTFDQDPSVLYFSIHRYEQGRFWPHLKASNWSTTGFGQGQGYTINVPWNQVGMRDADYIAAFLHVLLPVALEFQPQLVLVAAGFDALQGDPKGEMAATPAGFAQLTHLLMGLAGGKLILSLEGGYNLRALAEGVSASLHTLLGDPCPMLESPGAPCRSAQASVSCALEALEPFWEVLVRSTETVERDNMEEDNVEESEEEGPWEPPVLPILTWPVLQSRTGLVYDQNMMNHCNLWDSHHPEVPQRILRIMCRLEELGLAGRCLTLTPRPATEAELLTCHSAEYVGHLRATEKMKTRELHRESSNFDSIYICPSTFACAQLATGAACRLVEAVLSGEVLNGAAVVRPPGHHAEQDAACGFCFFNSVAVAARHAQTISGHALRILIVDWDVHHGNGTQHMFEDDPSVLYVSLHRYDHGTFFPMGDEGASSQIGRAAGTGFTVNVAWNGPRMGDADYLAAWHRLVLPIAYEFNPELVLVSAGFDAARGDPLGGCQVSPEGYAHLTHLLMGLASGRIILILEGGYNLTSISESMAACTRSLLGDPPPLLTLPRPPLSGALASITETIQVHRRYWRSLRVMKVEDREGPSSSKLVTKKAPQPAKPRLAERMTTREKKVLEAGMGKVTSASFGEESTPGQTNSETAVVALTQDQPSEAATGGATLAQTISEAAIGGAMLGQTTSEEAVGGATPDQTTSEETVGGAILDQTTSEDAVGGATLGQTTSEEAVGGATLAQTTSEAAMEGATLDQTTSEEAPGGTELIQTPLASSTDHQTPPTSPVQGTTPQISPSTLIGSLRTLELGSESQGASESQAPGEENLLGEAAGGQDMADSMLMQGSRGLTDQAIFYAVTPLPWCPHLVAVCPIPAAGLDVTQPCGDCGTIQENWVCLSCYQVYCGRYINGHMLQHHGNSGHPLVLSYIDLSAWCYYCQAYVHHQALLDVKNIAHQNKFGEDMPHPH
From the text: as §4, §2
as §3, with “A negative control without histone deacetylase activity and a positive control without HDAC inhibitor are treated likewise. The reaction is stopped after 15-60 min. by adding 50 μl developer (1:20 dilution in reaction buffer).” left out

recombinant HDAC8 = biological target: T3, recombinant HDAC8 (Homo sapiens, UniProt Q9BY41); experiment: In vitro inhibition of recombinant HDAC8 (Fluor de Lys); format: biochemical; details: read-out: concentration giving 50% reduction of HDAC activity
T3 construct: made in house; host or cells: High5 insect cells
T3 sequence (Q9BY41 1-377): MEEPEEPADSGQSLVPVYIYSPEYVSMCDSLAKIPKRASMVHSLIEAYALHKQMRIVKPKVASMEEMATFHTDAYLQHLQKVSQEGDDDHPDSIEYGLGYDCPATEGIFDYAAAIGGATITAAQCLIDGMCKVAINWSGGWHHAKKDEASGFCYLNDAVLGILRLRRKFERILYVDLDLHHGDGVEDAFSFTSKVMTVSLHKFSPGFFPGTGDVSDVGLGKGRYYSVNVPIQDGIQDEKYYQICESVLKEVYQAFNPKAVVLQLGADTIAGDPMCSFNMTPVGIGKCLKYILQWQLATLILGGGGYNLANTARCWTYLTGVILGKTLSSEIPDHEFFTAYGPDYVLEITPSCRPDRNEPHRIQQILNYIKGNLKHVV
From the text: as §4, §2
as §3, with “A negative control without histone deacetylase activity and a positive control without HDAC inhibitor are treated likewise. The reaction is stopped after 15-60 min. by adding 50 μl developer (1:20 dilution in reaction buffer).” left out

[7] = read-out: concentration inducing 50% growth arrest (IC50), mean over cell lines
[8] = read-out: concentrations inducing 50% growth arrest (IC50), range over cell lines

O=C(CCC1CCCC1)NO [Compound 1, 3-Cyclopentyl-N-hydroxy-propionamide]
concentration inducing BCL-XL downregulation [1]: 200 µM
apoptotic process in the presence of pan-caspase inhibitor Z-VAD (BV-173 cells): completely blocked
IC50 [2]: 14.7 µM
concentration at which induction of luciferase reporter gene expression starts [3]: 8 µM
fold induction at 8 µM ([3]; 24 hours): 2 to 3
concentration of maximum induction of histone H4 hyperacetylation [4]: 40 µM
lowest concentration at which histone H4 hyperacetylation is seen [4]: 1.6 µM
IC50 [5, 7]: 33 µM
IC50 [5, 8]: 8 to 70 µM
concentration inducing p21 expression [6]: 40 µM

O=C(CCC1CCCCC1)NO [Compound 2, 3-Cyclohexyl-N-hydroxy-propionamide]
concentration inducing BCL-XL downregulation [1]: 8 µM
apoptotic process in the presence of pan-caspase inhibitor Z-VAD (BV-173 cells): completely blocked
IC50 [2]: 6.1 µM
concentration at which induction of luciferase reporter gene expression starts [3]: 8 µM
fold induction at 8 µM ([3]; 24 hours): 2 to 3
concentration of maximum induction of histone H4 hyperacetylation [4]: 40 µM
lowest concentration at which histone H4 hyperacetylation is seen [4]: 1.6 µM
IC50 [5, 7]: 15 µM
IC50 [5, 8]: 5 to 26 µM
concentration inducing p21 expression [6]: 8 µM

O=C(C=CC1CCCCC1)NO [Compound 3, 3-Cyclohexyl-N-hydroxy-acrylamide]
concentration inducing BCL-XL downregulation [1]: 8 µM
apoptotic process in the presence of pan-caspase inhibitor Z-VAD (BV-173 cells): completely blocked
IC50 [2]: 0.9 µM
concentration at which induction of luciferase reporter gene expression starts [3]: 1.6 µM
maximum induction of luciferase reporter gene expression ([3]; at 40 μM, 24 hours): ~40 fold
IC50 (recombinant HDAC1): 0.3 to 0.4 µM
concentration at which histone H4 hyperacetylation starts [4]: 320 nM
IC50 (recombinant HDAC6): 0.3 to 0.4 µM
IC50 [5, 7]: 2.6 µM
IC50 [5, 8]: 0.5 to 8 µM
concentration inducing p21 expression [6]: 8 µM
IC50 (recombinant HDAC8): 0.3 to 0.4 µM
